Results on 37 compounds are retold here after ChEMBL document CHEMBL4483862, “Open-source discovery of chemical leads for next-generation chemoprotective antimalarials” (2018).

The assay relates to Plasmodium berghei. Put plainly: Luciferase/luciferin-expressing antifolate-resistant parasites were used to infect a culture of HepG2 cells that were pre-incubated with compounds. Infected hepatocytes emit light due to the luciferase reaction. Assay results are presented as the percent inhibition of light emission compared to control. […]. It is filed as functional. Conditions: sporozoite; for IC90: read-out: LUCIFERASE INFECTION ASSAY - IC90.

The mark [1] stands for this setting: PBLUC_HILL_SLOPE 3.04, PBLUC_R_SQUARED 0.101, read-out: LUCIFERASE INFECTION ASSAY - IC50.
[2] abbreviates: PBLUC_HILL_SLOPE 3, PBLUC_R_SQUARED 0.854, read-out: LUCIFERASE INFECTION ASSAY - IC50.

As usually defined, the IC50 is the point on the concentration scale where inhibition reaches its midpoint. Usually IC90 stands for the concentration needed for an effect of 90%. Regarding `CCCCNC(=O)C1(C)CCCCN1C(=O)c1ccc2c(c1)C(C)(C)CCC2(C)C` (centres undefined), the IC90 is more than 8 µM. In addition, the IC50 (PBLUC_HILL_SLOPE 3, PBLUC_R_SQUARED 0.424, read-out: LUCIFERASE INFECTION ASSAY - IC50) is 7.41 µM.

As for `CC(=O)c1cccc(-c2cnc3cnc(-c4cccc(F)c4)cn23)c1`, the IC90 is more than 9.96 µM. Besides, for the setting “PBLUC_HILL_SLOPE 3, PBLUC_R_SQUARED 0.624, read-out: LUCIFERASE INFECTION ASSAY - IC50”, the IC50 came to 7.54 µM.

Turning to `COc1ccc(-c2cnc3cnc(-c4cccs4)cn23)cc1`, the 90% effect concentration (IC90) stood at 8.31 µM. The IC50 (PBLUC_HILL_SLOPE 3.03, PBLUC_R_SQUARED 0.723, read-out: LUCIFERASE INFECTION ASSAY - IC50) worked out at 4.02 µM.

Take `Cc1cc(C(=O)NC2CC2)c(C)n1-c1ccc(C(C)C)cc1`: the IC90 is more than 10 µM. Further, under “PBLUC_HILL_SLOPE 2.98, PBLUC_R_SQUARED 0.567, read-out: LUCIFERASE INFECTION ASSAY - IC50”, the IC50 was 6.28 µM.

With `Cc1ccc(-n2c(C)cc(C(=O)CNCc3ccccc3)c2C)cc1`, the IC90 is more than 10 µM. The IC50 under setting [1] was 9.63 µM.

For the compound `O=C(NCCc1ccccn1)c1ccc(Cl)c(S(=O)(=O)N(Cc2ccccc2)c2cccc(C(F)(F)F)c2)c1`, the IC90 turned out to be 3.59 µM. In addition, the IC50 (PBLUC_HILL_SLOPE 3, PBLUC_R_SQUARED 0.619, read-out: LUCIFERASE INFECTION ASSAY - IC50) amounted to 1.73 µM.

Take `O=C(N/N=C/c1ccc(O)cc1O)c1ccc[n+]([O-])c1`: the IC90 was found to be 0.362 µM. Besides, under setting [2], the IC50 was 0.174 µM.

Regarding `O=C(CSc1nnc(-c2c[nH]c3ccccc23)n1C1CC1)NC1CCN(Cc2ccccc2)C1` (centres undefined), the IC90 amounted to 8.82 µM. Under “PBLUC_HILL_SLOPE 3.03, PBLUC_R_SQUARED 0.422, read-out: LUCIFERASE INFECTION ASSAY - IC50”, the IC50 stood at 4.27 µM.

On to `Cc1ccc(-c2nn(-c3ccccc3)cc2CN(C)C(=O)CCNC(=O)c2ccco2)cc1C`, for which the IC90 is more than 10 µM. Besides, the IC50 (PBLUC_HILL_SLOPE 3, PBLUC_R_SQUARED 0.508, read-out: LUCIFERASE INFECTION ASSAY - IC50) amounted to 5.91 µM.

In the case of `COc1ccccc1C(=O)Nc1c(C#N)cnn1-c1nc(C)cc(C)n1`, the 90% effect concentration (IC90) turned out to be 7.94 µM. Moreover, under “PBLUC_HILL_SLOPE 2.98, PBLUC_R_SQUARED 0.592, read-out: LUCIFERASE INFECTION ASSAY - IC50”, the IC50 worked out at 3.8 µM.

In the case of `Cc1nc2ccc(I)cn2c1/C=N/Nc1ccccn1`, the IC90 was more than 10 µM. Besides, the IC50 (PBLUC_HILL_SLOPE 2.99, PBLUC_R_SQUARED 0.247, read-out: LUCIFERASE INFECTION ASSAY - IC50) came to 6.77 µM.

For the compound `CNc1nc2cnc(Nc3cccc(Cl)c3)cc2n1-c1cc(OC)c(OC)c(OC)c1`, the IC90 was found to be 4.49 µM. For the same compound, the IC50 (PBLUC_HILL_SLOPE 3.01, PBLUC_R_SQUARED 0.505, read-out: LUCIFERASE INFECTION ASSAY - IC50) was 2.17 µM.

In the case of `Cc1ccc(-n2ncc(C(=O)OCc3nc(N)nc(N(C)C)n3)c2C(C)C)cc1`, the IC90 is more than 10 µM. In addition, the IC50 (PBLUC_HILL_SLOPE 2.99, PBLUC_R_SQUARED 0.678, read-out: LUCIFERASE INFECTION ASSAY - IC50) turned out to be 6.36 µM.

On to `CC(C)(C)c1ccc(CSc2nnc(-c3ccc(C(C)(C)C)cc3)n2Cc2ccco2)cc1`, for which the IC90 was more than 7.18 µM. For the same compound, the IC50 (PBLUC_HILL_SLOPE 3.03, PBLUC_R_SQUARED 0.36, read-out: LUCIFERASE INFECTION ASSAY - IC50) was determined as 5.09 µM.

As to `CC(C)(C)c1ccc(-c2cnc3cnc(-c4cccc(C(N)=O)c4)cn23)cc1`, the IC90 was more than 8.91 µM. Also, the IC50 (PBLUC_HILL_SLOPE 3.04, PBLUC_R_SQUARED 0.545, read-out: LUCIFERASE INFECTION ASSAY - IC50) stood at 6.86 µM.

Regarding `CCOC(=O)c1nn(CCc2ccccc2)c2c1CN(C(=O)c1cc(C)n[nH]1)CC2`, the IC90 is more than 8.1 µM. Besides, the IC50 (PBLUC_HILL_SLOPE 3.03, PBLUC_R_SQUARED 0.7, read-out: LUCIFERASE INFECTION ASSAY - IC50) stood at 4.26 µM.

As to `COc1cc(OC)c(C(=O)NC(C)C23CC4CC(CC(C4)C2)C3)cc1OC` (centres undefined), the IC90 was found to be 9.64 µM. Further, the IC50 (PBLUC_HILL_SLOPE 2.98, PBLUC_R_SQUARED 0.335, read-out: LUCIFERASE INFECTION ASSAY - IC50) came out at 4.61 µM.

As for `COc1ccc(-c2nc3ccnc(NCc4ccc(Cl)cc4)c3[nH]2)cc1`, the IC90 stood at 4.74 µM. The IC50 (PBLUC_HILL_SLOPE 2.99, PBLUC_R_SQUARED 0.272, read-out: LUCIFERASE INFECTION ASSAY - IC50) is 2.27 µM.

For `Cc1cc(-c2csc(NC(=O)CCc3nc4ccccc4[nH]3)n2)c(C)s1`, the 90% effect concentration (IC90) was more than 10 µM. Further, the half-inhibitory concentration (IC50) (PBLUC_HILL_SLOPE 3, PBLUC_R_SQUARED 0.654, read-out: LUCIFERASE INFECTION ASSAY - IC50) was determined as 6.46 µM.

As to `Cc1cc(C)n(-c2nc(NCc3ccco3)cc(-c3ccccc3)n2)n1`, the IC90 was more than 9.55 µM. Where the note is “PBLUC_HILL_SLOPE 3.01, PBLUC_R_SQUARED 0.273, read-out: LUCIFERASE INFECTION ASSAY - IC50”, the IC50 came out at 5.14 µM.

Regarding `O=C(CN1C(=O)C(=O)N(CCc2cccs2)C1=O)NC(=O)Nc1ccccc1F`, the IC90 is more than 10 µM. In addition, for the setting “PBLUC_HILL_SLOPE 3, PBLUC_R_SQUARED 0.385, read-out: LUCIFERASE INFECTION ASSAY - IC50”, the IC50 is more than 10 µM.

`Cn1c(Nc2ccccc2)nc2cnc(-c3ccc4ccccc4c3)cc21`: the IC90 was more than 10 µM. Moreover, the IC50 (PBLUC_HILL_SLOPE 3.04, PBLUC_R_SQUARED 0.156, read-out: LUCIFERASE INFECTION ASSAY - IC50) stood at 6.85 µM.

For `S=c1n(CN2CCN(c3ccccc3Cl)CC2)nc(-c2cccs2)n1Cc1ccccc1`, the IC90 came to 0.362 µM. Moreover, under setting [2], the half-inhibitory concentration (IC50) turned out to be 0.174 µM.

`Cc1cc(C)c(CSCCNC(=O)Nc2ccccc2)c(C)c1`: the concentration for an effect of 90% (IC90) is more than 10 µM. Further, the 50% inhibitory concentration (IC50) (PBLUC_HILL_SLOPE 3.02, PBLUC_R_SQUARED 0.314, read-out: LUCIFERASE INFECTION ASSAY - IC50) worked out at 4.91 µM.

Consider `O=C(CN1CCC(C(=O)Nc2ccccc2O)CC1)Nc1nc(-c2cccc([N+](=O)[O-])c2)cs1`, for which the IC90 is more than 10 µM. The IC50 (PBLUC_HILL_SLOPE 3.03, PBLUC_R_SQUARED 0.0575, read-out: LUCIFERASE INFECTION ASSAY - IC50) came to 6.47 µM.

Regarding `CCCc1cc(NCCN(C)C)n2ncc(-c3ccccc3)c2n1`, the IC90 is more than 10.2 µM. The concentration for half-maximal inhibition (IC50) (PBLUC_HILL_SLOPE 2.98, PBLUC_R_SQUARED 0.437, read-out: LUCIFERASE INFECTION ASSAY - IC50) worked out at 4.93 µM.

On to `c1ccn2c(Sc3ncnc4sc5c(c34)CCC5)nnc2c1`, for which the IC90 was more than 10 µM. For the setting “PBLUC_HILL_SLOPE 2.99, PBLUC_R_SQUARED 0.206, read-out: LUCIFERASE INFECTION ASSAY - IC50”, the IC50 came out at 4.93 µM.

Regarding `O=[N+]([O-])c1ccc(-c2noc(CCOc3ccc(F)cc3)n2)o1`, the IC90 was 9.89 µM. Further, the half-inhibitory concentration (IC50) (PBLUC_HILL_SLOPE 3.03, PBLUC_R_SQUARED 0.707, read-out: LUCIFERASE INFECTION ASSAY - IC50) worked out at 4.78 µM.

On to `COc1ccc(CCN(C)CC(O)COc2ccc(C(C)(C)CC(C)(C)C)cc2)cc1OC` (centres undefined), for which the IC90 is more than 10 µM. Further, under setting [1], the IC50 was found to be 9.63 µM.

Regarding `Cn1c(=O)c2ccc(C(=O)Nc3cccc(C(=O)Nc4cccc(C(F)(F)F)c4)c3)nc2n(C)c1=O`, the IC90 is more than 10 µM. Besides, under “PBLUC_HILL_SLOPE 3.03, PBLUC_R_SQUARED 0.059, read-out: LUCIFERASE INFECTION ASSAY - IC50”, the concentration for half-maximal inhibition (IC50) came out at 6.54 µM.

`c1ccc(-c2nc3sccn3c2CSc2nnnn2C2CCCC2)cc1`: the IC90 is more than 10 µM. For the same compound, where the note is “PBLUC_HILL_SLOPE 2.99, PBLUC_R_SQUARED 0.0258, read-out: LUCIFERASE INFECTION ASSAY - IC50”, the 50% inhibitory concentration (IC50) came out at 8.01 µM.

`Cn1c(Nc2ccccc2)nc2cnc(Nc3ccc(Oc4ccccc4)cc3)cc21`: the 90% effect concentration (IC90) was more than 10 µM. Moreover, the IC50 (PBLUC_HILL_SLOPE 3.01, PBLUC_R_SQUARED 0.581, read-out: LUCIFERASE INFECTION ASSAY - IC50) amounted to 5.93 µM.

For the compound `O=C(Cc1csc(Cc2ccccc2)n1)N1CCc2ccc(O)cc2C1`, the IC90 was more than 10 µM. The IC50 (PBLUC_HILL_SLOPE 3.03, PBLUC_R_SQUARED 0.78, read-out: LUCIFERASE INFECTION ASSAY - IC50) was determined as 6.09 µM.

On to `O=C(Nc1cccc(CNc2ccnc3cc(Cl)ccc23)c1)C1CC1`, for which the IC90 is more than 10 µM. Moreover, where the note is “PBLUC_HILL_SLOPE 2.98, PBLUC_R_SQUARED 0.123, read-out: LUCIFERASE INFECTION ASSAY - IC50”, the IC50 turned out to be 5.8 µM.

Consider `COc1ccc(C2=NN(c3ccccc3)C(c3cn(-c4ccccc4)nc3-c3cccnc3)C2)cc1` (centres undefined), for which the IC90 amounted to 9.32 µM. Besides, the concentration for half-maximal inhibition (IC50) (PBLUC_HILL_SLOPE 3.03, PBLUC_R_SQUARED 0.661, read-out: LUCIFERASE INFECTION ASSAY - IC50) amounted to 4.51 µM.

For `N#Cc1cc(-c2nc(-c3ccccc3)cs2)c(N)[nH]c1=S`, the IC90 was more than 10 µM. Also, the IC50 (PBLUC_HILL_SLOPE 3, PBLUC_R_SQUARED 0.293, read-out: LUCIFERASE INFECTION ASSAY - IC50) came to 6.32 µM.

Regarding `CN(Cc1c(F)cccc1Cl)C(=O)COc1ccc2[nH]c3ccccc3c(=O)c2c1`, the IC90 was determined as 1.11 µM. Further, the IC50 (PBLUC_HILL_SLOPE 2.98, PBLUC_R_SQUARED 0.795, read-out: LUCIFERASE INFECTION ASSAY - IC50) came to 0.53 µM.
